As usually defined, the IC50 is the midpoint of a concentration-inhibition curve. In general, Ki refers to the equilibrium dissociation constant of an inhibitor or competing ligand from its target.

The target of test [1] is T1, Neuropeptide Y receptor type 1 (Homo sapiens, UniProt P25929). Further: in other assays of this panel Not Active means under 50% inhibition at 10 µM.
T1 sequence (P25929 whole entry): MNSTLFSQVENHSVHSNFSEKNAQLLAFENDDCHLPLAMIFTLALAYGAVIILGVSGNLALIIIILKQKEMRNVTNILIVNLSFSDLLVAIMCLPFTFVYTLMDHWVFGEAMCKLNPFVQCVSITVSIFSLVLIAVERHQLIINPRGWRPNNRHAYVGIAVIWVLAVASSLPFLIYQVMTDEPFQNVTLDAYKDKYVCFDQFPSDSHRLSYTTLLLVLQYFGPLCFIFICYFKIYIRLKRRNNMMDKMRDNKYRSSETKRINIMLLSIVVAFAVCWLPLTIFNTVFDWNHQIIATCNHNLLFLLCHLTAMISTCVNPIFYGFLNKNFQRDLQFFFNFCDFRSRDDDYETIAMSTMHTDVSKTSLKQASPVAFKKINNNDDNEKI
The class given is cell membranes, Membrane. The conditions noted are these: sk-n-mc.

A further test has as its target T2, Adenosine receptor A1 (Homo sapiens, UniProt P30542).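 Further: radioligand binding assay at the adenosine A1 receptor, with DPCPX serving as the labelled ligand; in other assays of this panel Not Active means under 50% inhibition at 10 µM.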
T2 sequence (P30542 whole entry): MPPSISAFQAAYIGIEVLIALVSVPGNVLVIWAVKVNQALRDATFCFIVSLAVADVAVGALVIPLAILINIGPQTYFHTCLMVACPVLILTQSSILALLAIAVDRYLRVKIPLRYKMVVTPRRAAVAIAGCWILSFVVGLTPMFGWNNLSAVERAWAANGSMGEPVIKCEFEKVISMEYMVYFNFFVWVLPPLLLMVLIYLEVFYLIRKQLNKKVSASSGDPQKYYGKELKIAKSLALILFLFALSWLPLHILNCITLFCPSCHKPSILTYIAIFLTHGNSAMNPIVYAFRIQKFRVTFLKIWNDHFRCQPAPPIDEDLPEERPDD
The class given is cell membranes, CHO, Membrane. As to conditions: cho.

Test [2] deals with 5-hydroxytryptamine receptor 6 (Homo sapiens, UniProt P50406). The class given is cell membranes, HeLa, Membrane.
Chain of 5-hydroxytryptamine receptor 6 (P50406 whole entry): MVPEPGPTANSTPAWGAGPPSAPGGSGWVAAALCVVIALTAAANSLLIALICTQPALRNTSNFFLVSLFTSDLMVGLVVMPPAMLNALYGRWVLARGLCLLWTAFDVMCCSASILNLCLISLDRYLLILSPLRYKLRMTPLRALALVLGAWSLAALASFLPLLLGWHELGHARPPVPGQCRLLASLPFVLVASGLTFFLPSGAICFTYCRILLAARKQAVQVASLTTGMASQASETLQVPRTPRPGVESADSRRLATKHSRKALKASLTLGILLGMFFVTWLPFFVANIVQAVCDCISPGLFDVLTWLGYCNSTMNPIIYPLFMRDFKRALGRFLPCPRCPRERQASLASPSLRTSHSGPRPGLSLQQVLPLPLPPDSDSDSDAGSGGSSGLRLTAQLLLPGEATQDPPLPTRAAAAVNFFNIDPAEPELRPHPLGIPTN
Test [3] addresses T3, 5-hydroxytryptamine receptor 1A (Rattus norvegicus, UniProt P19327).
T3 sequence (P19327 whole entry): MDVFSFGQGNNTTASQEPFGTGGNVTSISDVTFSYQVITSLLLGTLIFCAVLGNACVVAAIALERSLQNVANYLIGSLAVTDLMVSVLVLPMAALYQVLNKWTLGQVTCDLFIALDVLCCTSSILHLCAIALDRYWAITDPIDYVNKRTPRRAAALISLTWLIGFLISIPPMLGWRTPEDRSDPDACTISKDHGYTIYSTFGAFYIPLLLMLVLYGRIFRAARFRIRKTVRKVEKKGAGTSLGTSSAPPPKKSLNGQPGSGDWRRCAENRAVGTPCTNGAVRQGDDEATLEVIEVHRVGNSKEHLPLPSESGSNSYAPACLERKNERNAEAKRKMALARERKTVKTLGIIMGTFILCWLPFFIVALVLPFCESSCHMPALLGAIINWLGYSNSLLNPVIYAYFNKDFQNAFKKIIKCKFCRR
The class given is cell membranes, CHO-K1, Membrane. The conditions noted are these: cho-k1.

Test [4] addresses Tyrosine-protein kinase Lck (Homo sapiens, UniProt P06239). The test can be described thus: DRUGMATRIX: Protein Tyrosine Kinase, LCK enzyme inhibition (substrate: Poly(Glu:Tyr)). The class given is cell-based, Insect cells. As to conditions: insect cells; Not Active = under 50% inhibition at 10 µM.

Chain of Tyrosine-protein kinase Lck (P06239 whole entry): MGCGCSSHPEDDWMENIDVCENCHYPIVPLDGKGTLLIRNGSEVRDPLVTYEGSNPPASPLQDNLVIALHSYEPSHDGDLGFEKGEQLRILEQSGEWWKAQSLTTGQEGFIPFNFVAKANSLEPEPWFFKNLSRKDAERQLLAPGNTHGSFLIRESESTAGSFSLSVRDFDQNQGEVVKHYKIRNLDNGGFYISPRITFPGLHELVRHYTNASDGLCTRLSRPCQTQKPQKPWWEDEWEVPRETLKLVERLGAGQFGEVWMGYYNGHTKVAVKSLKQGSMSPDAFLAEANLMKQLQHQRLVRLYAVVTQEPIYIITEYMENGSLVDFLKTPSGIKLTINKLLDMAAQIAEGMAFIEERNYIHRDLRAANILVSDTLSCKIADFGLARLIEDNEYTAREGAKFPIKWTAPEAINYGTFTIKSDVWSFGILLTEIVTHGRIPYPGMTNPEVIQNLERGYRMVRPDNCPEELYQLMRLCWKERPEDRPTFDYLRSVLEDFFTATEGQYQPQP

As for `CCn1cc(C(=O)O)c(=O)c2cc(F)c(N3CCNC(C)C3)c(F)c21` (stereo unspecified) [LOMEFLOXACIN], the 50% inhibitory concentration (IC50) entry (in test [1]; on Adenosine receptor A1; in test [2] (hela); in test [3]; in test [4]) was “Not Active” throughout.

On to `CN1CCCC(CN2c3ccccc3Sc3ccccc32)C1` (stereo unspecified) [MEPAZINE], for which the IC50 entry in test [1] was “Not Active”; against Adenosine receptor A1, “Not Active”; in test [2] (read-out: IC50) it was 1840 nM; in test [3], “Not Active”; in test [4] it was “Not Active”. In addition, the inhibition constant (Ki) in test [2] (read-out: Ki) came to 853 nM.

Turning to `Cc1cccc(C)c1NC(=O)C1CCCCN1C` (stereo unspecified) [MEPIVACAINE], the IC50 entry (in test [1]; at Adenosine receptor A1; in test [2] (hela); in test [3]; in test [4]) was “Not Active” each time.

Take `CN(C)C(=N)NC(=N)N` [METFORMIN]: the IC50 result (in test [1]; against Adenosine receptor A1; in test [2] (hela); in test [3]; in test [4]) was “Not Active” in each case.

Turning to `CC(C)(C)NCC(O)COc1cccc2c1CC(O)C(O)C2` (stereo unspecified) [NADOLOL], the IC50 result (in test [1]; against Adenosine receptor A1; in test [2] (hela); in test [3]; in test [4]) was “Not Active” each time.

As to `C[C@]12CC[C@H]3[C@@H](CCC4=CC(=O)CC[C@@H]43)[C@@H]1CC[C@@H]2O` [NANDROLONE], the IC50 result (in test [1]; on Adenosine receptor A1; in test [2] (hela); in test [3]; in test [4]) was “Not Active” each time.

Regarding `C[C@@H]1C/C=C/C=C/C=C/C=C/[C@H](O[C@@H]2O[C@H](C)[C@@H](O)[C@H](N)[C@@H]2O)C[C@@H]2O[C@](O)(C[C@@H](O)C[C@H]3O[C@@H]3/C=C/C(=O)O1)C[C@H](O)[C@H]2C(=O)O` [NATAMYCIN], the IC50 result (in test [1]; against Adenosine receptor A1; in test [2] (hela); in test [3]; in test [4]) was “Not Active” in each case.

Turning to `CN(C)C(=O)Oc1cccc([N+](C)(C)C)c1.[Br-]` [NEOSTIGMINE BROMIDE], the concentration for half-maximal inhibition (IC50) entry (in test [1]; at Adenosine receptor A1; in test [2] (hela); in test [3]; in test [4]) was “Not Active” throughout.

Take `NC(=O)c1cccnc1` [NIACINAMIDE]: the IC50 result (in test [1]; at Adenosine receptor A1; in test [2] (hela); in test [3]; in test [4]) was “Not Active” in each case.

Turning to `CS(=O)(=O)Nc1ccc([N+](=O)[O-])cc1Oc1ccccc1` [NIMESULIDE], the IC50 result (in test [1]; against Adenosine receptor A1; in test [2] (hela); in test [3]; in test [4]) was “Not Active” throughout.

As to `CN1C(=O)CN=C(c2ccccc2)c2cc([N+](=O)[O-])ccc21` [NIMETAZEPAM], the 50% inhibitory concentration (IC50) result (in test [1]; against Adenosine receptor A1; in test [2] (hela); in test [3]; in test [4]) was “Not Active” throughout.

Take `COc1ccc2c(c1OC)C(=O)O[C@@H]2[C@H]1c2c(cc3c(c2OC)OCO3)CCN1C` [NOSCAPINE]: the IC50 entry (in test [1]; on Adenosine receptor A1; in test [2] (hela); in test [3]; in test [4]) was “Not Active” throughout.

As to `C[C@@H]1O[C@@H](O[C@H]2C[C@@H](O)[C@]3(CO)[C@H]4[C@H](O)C[C@]5(C)[C@@H](C6=CC(=O)OC6)CC[C@]5(O)[C@@H]4CC[C@]3(O)C2)[C@H](O)[C@H](O)[C@H]1O` [OUABAIN], the 50% inhibitory concentration (IC50) entry (in test [1]; at Adenosine receptor A1; in test [2] (hela); in test [3]; in test [4]) was “Not Active” in each case.

Turning to `NC(=O)N1c2ccccc2CC(=O)c2ccccc21` [OXCARBAZEPINE], the half-inhibitory concentration (IC50) entry (in test [1]; at Adenosine receptor A1; in test [2] (hela); in test [3]; in test [4]) was “Not Active” each time.

Take `COc1ccnc(C[S+]([O-])c2nc3ccc(OC(F)F)cc3[nH]2)c1OC` (stereo unspecified) [PANTOPRAZOLE]: the IC50 entry (in test [1]; against Adenosine receptor A1; in test [2] (hela); in test [3]; in test [4]) was “Not Active” each time.

On to `N=C(N)c1ccc(OCCCCCOc2ccc(C(=N)N)cc2)cc1` [PENTAMIDINE], for which the half-inhibitory concentration (IC50) result (in test [1]; against Adenosine receptor A1; in test [2] (hela); in test [3]; in test [4]) was “Not Active” in each case.

Consider `NNCCc1ccccc1` [PHENELZINE], for which the IC50 result (in test [1]; at Adenosine receptor A1; in test [2] (hela); in test [3]; in test [4]) was “Not Active” throughout.

Regarding `CCc1ccc(CCOc2ccc(CC3SC(=O)NC3=O)cc2)nc1` (stereo unspecified) [PIOGLITAZONE], the IC50 result (in test [1]; against Adenosine receptor A1; in test [2] (hela); in test [3]; in test [4]) was “Not Active” throughout.

For the compound `CCCNC(C)C(=O)Nc1ccccc1C` (stereo unspecified) [PRILOCAINE], the concentration for half-maximal inhibition (IC50) result (in test [1]; against Adenosine receptor A1; in test [2] (hela); in test [3]; in test [4]) was “Not Active” throughout.

Consider `CCN(CC)CCNC(=O)c1ccc(N)cc1` [PROCAINAMIDE], for which the 50% inhibitory concentration (IC50) result (in test [1]; against Adenosine receptor A1; in test [2] (hela); in test [3]; in test [4]) was “Not Active” each time.

For the compound `CCN(CC)CCCC(C)Nc1c2ccc(Cl)cc2nc2ccc(OC)cc12` (stereo unspecified) [QUINACRINE], the IC50 result (in test [1]; at Adenosine receptor A1; in test [2] (hela); in test [3]; in test [4]) was “Not Active” throughout.

In the case of `C[C@]12C=CC(=O)C=C1CC[C@H]1[C@@H]3C[C@@H](O)[C@](O)(C(=O)CO)[C@@]3(C)C[C@H](O)[C@@]12F` [TRIAMCINOLONE], the IC50 result (in test [1]; against Adenosine receptor A1; in test [2] (hela); in test [3]; in test [4]) was “Not Active” in each case.

`CC[C@]1(O)C[C@@H]2CN(CCc3c([nH]c4ccccc34)[C@@](C(=O)OC)(c3cc4c(cc3OC)N(C)[C@H]3[C@@](O)(C(N)=O)[C@H](O)[C@]5(CC)C=CCN6CC[C@]43[C@@H]65)C2)C1` [VINDESINE]: the IC50 result (in test [1]; against Adenosine receptor A1; in test [2] (hela); in test [3]; in test [4]) was “Not Active” in each case.

Take `CCN(C(C)=O)c1cccc(-c2ccnc3c(C#N)cnn23)c1` [ZALEPLON]: the IC50 entry (in test [1]; against Adenosine receptor A1; in test [2] (hela); in test [3]; in test [4]) was “Not Active” throughout.

For COBALTOUS CHLORIDE, the half-inhibitory concentration (IC50) result (in test [1]; at Adenosine receptor A1; in test [2] (hela); in test [3]; in test [4]) was “Not Active” each time. For the same compound, the inhibition constant (Ki) entry (in test [1]; at Adenosine receptor A1; in test [2] (hela); in test [3]; in test [4]) was “Not Active” each time.

Turning to COLISTIN, the half-inhibitory concentration (IC50) entry (in test [1]; against Adenosine receptor A1; in test [2] (hela); in test [3]; in test [4]) was “Not Active” each time. Besides, the inhibition constant (Ki) result (in test [1]; on Adenosine receptor A1; in test [2] (hela); in test [3]; in test [4]) was “Not Active” throughout.

(Values after ChEMBL document CHEMBL1909046, “DrugMatrix in vitro pharmacology data”.)
